Consider 30 molecules from US20250171438A1 (Agios Pharmaceuticals, Inc., priority 2022, published 2025).

Read-outs that look alike come from different tables or passages of the source. Some results are limits rather than exact numbers.

The target in the assay is T1, human PAH with the R408W mutation (Homo sapiens, UniProt P00439, R408W).
T1 construct: expressed in transfected cells
T1 sequence (P00439 1-452 R408W): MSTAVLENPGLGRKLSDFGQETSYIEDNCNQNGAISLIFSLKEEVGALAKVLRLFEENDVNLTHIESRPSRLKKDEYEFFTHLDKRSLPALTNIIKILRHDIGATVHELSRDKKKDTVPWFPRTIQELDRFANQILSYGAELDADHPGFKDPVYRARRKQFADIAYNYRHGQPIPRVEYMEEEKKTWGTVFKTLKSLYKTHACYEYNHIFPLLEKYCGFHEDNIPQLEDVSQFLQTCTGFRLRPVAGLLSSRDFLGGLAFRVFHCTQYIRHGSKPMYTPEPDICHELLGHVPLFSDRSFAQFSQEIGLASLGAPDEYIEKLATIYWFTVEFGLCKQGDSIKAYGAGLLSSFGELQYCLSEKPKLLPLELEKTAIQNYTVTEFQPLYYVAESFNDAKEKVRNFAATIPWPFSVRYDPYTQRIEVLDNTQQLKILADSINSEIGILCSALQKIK
Kind of assay: Cell Based Phenylalanine Flux Assay. The conditions noted are these: A375 cells expressing human R408W PAH, 13C-Tyrosine by LC-MS, average where tested multiple times, read-out: AC50.

Take `O=C(CCc1nc(Cl)cs1)N1CCc2[nH]cnc2[C@H]1c1nc2ccccc2[nH]1` [(S)-1-(4-(1H-benzo[d]imidazol-2-yl)-1,4,6,7-tetrahydro-5H-imidazo[4,5-c]pyridin-5-yl)-3-(4-chlorothiazol-2-yl)propan-1-one]: for the setting “24 hrs with compound”, the AC50 fell in the range of 1000 to 5000 nM. With `O=C(C1CN(c2ccc(Cl)cc2)C1)N1CCc2[nH]cnc2C1c1nc2ccccc2s1` (stereo not drawn), where the note is “24 hrs with compound”, the AC50 fell in the range of 1000 to 5000 nM. `Cn1nc(CF)cc1C(=O)N1CCc2[nH]cnc2[C@@H]1c1nc2c(F)cccc2s1` [Example 1918, (R)-(4-(4-fluorobenzo[d]thiazol-2-yl)-6,7-dihydro-1H-imidazo[4,5-c]pyridin-5(4H)-yl)(3-(fluoromethyl)-1-methyl-1H-pyrazol-5-yl)methanone]: the AC50 (24 hrs compound incubation) was 1000 to 5000 nM. Still for that read-out and setting: the value for `Cc1nnc(C(=O)N2CCc3[nH]cnc3[C@H]2c2nc3c(F)cccc3s2)o1` [Example 1465, (S)-(4-(4-fluorobenzo[d]thiazol-2-yl)-6,7-dihydro-1H-imidazo[4,5-c]pyridin-5(4H)-yl)(5-methyl-1,3,4-oxadiazol-2-yl)methanone] was 500 to 1000 nM. Same read-out and setting: to `CC(C)(O)c1nc(C(F)F)c(C(=O)N2CCc3[nH]cnc3[C@@H]2c2nc3ccccc3s2)s1` [Example 2106, (R)-(4-(benzo[d]thiazol-2-yl)-6,7-dihydro-1H-imidazo[4,5-c]pyridin-5(4H)-yl)(4-(difluoromethyl)-2-(2-hydroxypropan-2-yl)thiazol-5-yl)methanone] belongs less than 500 nM; to `O=C(c1cnc(-c2cc(C(F)(F)F)ccn2)s1)N1CCc2[nH]cnc2[C@@H]1c1nc2ccccc2s1` [Example 1358, (R)-(4-(benzo[d]thiazol-2-yl)-6,7-dihydro-1H-imidazo[4,5-c]pyridin-5(4H)-yl)(2-(4-(trifluoromethyl)pyridin-2-yl)thiazol-5-yl)methanone], 1000 to 5000 nM. Consider `CC1CN(C(=O)c2cnc(N3CCOCC3)o2)C(c2nc3ccccc3s2)c2nc[nH]c21` (stereo not drawn), for which the AC50 (24 hrs with compound) lay within 1000 to 5000 nM. Regarding `O=C(c1cnc(-c2ccc(C(F)(F)F)nc2)s1)N1CCc2[nH]cnc2[C@H]1c1nc2ccccc2s1` [Example 1356], for the setting “24 hrs compound incubation”, the half-maximal activity concentration (AC50) lay in the range of 500 to 1000 nM.

Consider `O=C(c1oc(-c2ccccn2)nc1C1CC1)N1CCCc2[nH]cnc2[C@H]1c1nc2ccccc2s1` [Example 2119, (S)-(4-(benzo[d]thiazol-2-yl)-7,8-dihydroimidazo[4,5-c]azepin-5(1H,4H,6H)-yl)(4-cyclopropyl-2-(pyridin-2-yl)oxazol-5-yl)methanone], for which the concentration at half-maximal activity (AC50) (24 hrs compound incubation) fell in the range of 500 to 1000 nM. The same measure, in the same setting: the value for `C[C@@H](O)c1nc(C(F)F)c(C(=O)N2CCc3[nH]cnc3[C@H]2c2nc3c(C(F)(F)F)cccc3s2)o1` [Example 2109, (4-(difluoromethyl)-2-((R)-1-hydroxyethyl)oxazol-5-yl) ((S)-4-(4-(trifluoromethyl)benzo[d]thiazol-2-yl)-6,7-dihydro-1H-imidazo[4,5-c]pyridin-5(4H)-yl)methanone] was less than 500 nM. In the case of `COC(=O)N1CC(C(=O)N2CCc3[nH]cnc3C2c2nc3ccccc3s2)C1` (stereo not drawn), the AC50 (24 hrs with compound) was in the range of 1000 to 5000 nM.

Consider `O=C(c1cnn2ccccc12)N1CCc2[nH]cnc2[C@@H]1c1nc2cccc(Br)c2s1` [Example 1336, (R)-(4-(7-bromobenzo[d]thiazol-2-yl)-6,7-dihydro-1H-imidazo[4,5-c]pyridin-5(4H)-yl)(pyrazolo[1,5-a]pyridin-3-yl)methanone], for which the AC50 (24 hrs compound incubation) is 1000 to 5000 nM.

As to `N#Cc1nn2cc(Br)ccc2c1C(=O)N1CCc2[nH]cnc2[C@@H]1c1nc2ccccc2s1` [Example 1780, (R)-3-(4-(benzo[d]thiazol-2-yl)-4,5,6,7-tetrahydro-1H-imidazo[4,5-c]pyridine-5-carbonyl)-6-bromopyrazolo[1,5-a]pyridine-2-carbonitrile], the AC50 (24 hrs compound incubation) is 1000 to 5000 nM. As for `Cn1nccc1-c1nnc(C(=O)N2CCc3[nH]cnc3[C@H]2c2nc3ccccc3s2)o1` [Example 1945], the AC50 (24 hrs compound incubation) is less than 500 nM.

Regarding `O=C(c1cnco1)N1CCc2[nH]cnc2C1c1nc2c(C(F)(F)F)cccc2s1` (stereo not drawn), the AC50 (24 hrs with compound) was 1000 to 5000 nM. For the molecule `O=C(c1ncco1)N1CCc2[nH]cnc2[C@H]1c1nc2cccc(F)c2s1` [Example 1279, (S)-(4-(7-fluorobenzo[d]thiazol-2-yl)-6,7-dihydro-1H-imidazo[4,5-c]pyridin-5(4H)-yl)(oxazol-2-yl)methanone], the AC50 (24 hrs compound incubation) fell in the range of 1000 to 5000 nM.

On to `Cc1nc([C@@H](C)O)oc1C(=O)N1CCc2[nH]cnc2[C@H]1c1nc2c(F)cccc2s1` [Example 1929, ((S)-4-(4-fluorobenzo[d]thiazol-2-yl)-6,7-dihydro-1H-imidazo[4,5-c]pyridin-5(4H)-yl)(2-((R)-1-hydroxyethyl)-4-methyloxazol-5-yl)methanone], for which, under “24 hrs compound incubation”, the AC50 lay within 500 to 1000 nM. On to `c1ccc2sc(C3c4nc[nH]c4CCN3c3nnc(C4CC4)o3)nc2c1` (stereo not drawn), for which the concentration at half-maximal activity (AC50) (24 hrs with compound) was in the range of 1000 to 5000 nM. For `O=C([C@@H]1CC1(F)F)N1CCc2[nH]cnc2[C@H]1c1nc2c(F)cccc2s1` [Example 1645], the AC50 (24 hrs compound incubation) fell in the range of 500 to 1000 nM. Turning to `O=C(CC1CC1)N1CCc2[nH]cnc2[C@@H]1c1nc2cccc(F)c2s1` [Example 1258, (R)-2-cyclopropyl-1-(4-(7-fluorobenzo[d]thiazol-2-yl)-6,7-dihydro-1H-imidazo[4,5-c]pyridin-5(4H)-yl)ethanone], under “24 hrs compound incubation”, the AC50 was in the range of 500 to 1000 nM. On to `O=C(c1cnco1)N1CCc2[nH]cnc2[C@@H]1c1nc2c(F)cccc2s1` [Example 2162], for which, under “24 hrs compound incubation”, the AC50 fell in the range of 1000 to 5000 nM. Turning to `O=C(c1ccno1)N1CCc2[nH]cnc2C1c1nc2cccc(F)c2s1` (stereo not drawn), the AC50 (24 hrs with compound) is 1000 to 5000 nM.

Regarding `Cc1nc(C(C)(C)O)oc1C(=O)N1CC(C)c2[nH]cnc2C1c1nc2c(F)cccc2s1` (stereo not drawn), the AC50 (24 hrs with compound) is more than 5000 nM. On the same count and under the same terms, to `CC1CN(C(=O)c2cnco2)C(c2nc3c(F)cccc3s2)c2nc[nH]c21` (stereo not drawn) belongs more than 5000 nM. On the same count and under the same terms, the value for `O=C(c1nc2ccccc2s1)N1CCc2[nH]cnc2C1c1nc2ccc(Br)cc2[nH]1` (stereo not drawn) was 1000 to 5000 nM.

For the molecule `O=C(c1nnc(-c2cnn(CC(F)(F)F)c2)o1)N1CCc2[nH]cnc2[C@H]1c1nc2c(F)cccc2s1` [Example 1844, (S)-(4-(4-fluorobenzo[d]thiazol-2-yl)-6,7-dihydro-1H-imidazo[4,5-c]pyridin-5(4H)-yl)(5-(1-(2,2,2-trifluoroethyl)-1H-pyrazol-4-yl)-1,3,4-oxadiazol-2-yl)methanone], the concentration at half-maximal activity (AC50) (24 hrs compound incubation) fell in the range of 500 to 1000 nM. Take `O=C(c1cnn2ccccc12)N1CCc2[nH]cnc2[C@H]1c1nc2c(Cl)cccc2s1` [Example 1221, (S)-(4-(4-chlorobenzo[d]thiazol-2-yl)-6,7-dihydro-1H-imidazo[4,5-c]pyridin-5(4H)-yl)(pyrazolo[1,5-a]pyridin-3-yl)methanone]: the AC50 (24 hrs compound incubation) is less than 500 nM. Still for that read-out and setting: the value for `CC(C)(C)CCC(=O)N1CCc2[nH]cnc2[C@H]1c1nc2ccccc2[nH]1` [Example 907, (S)-1-(4-(1H-benzo[d]imidazol-2-yl)-6,7-dihydro-1H-imidazo[4,5-c]pyridin-5(4H)-yl)-4,4-dimethylpentan-1-one] was less than 500 nM; that for `O=C(c1cnn2ccc(F)cc12)N1CCc2[nH]cnc2[C@H]1c1nc2c(F)cccc2s1` [Example 1170, (S)-(4-(4-fluorobenzo[d]thiazol-2-yl)-6,7-dihydro-1H-imidazo[4,5-c]pyridin-5(4H)-yl)(5-fluoropyrazolo[1,5-a]pyridin-3-yl)methanone] was 500 to 1000 nM; that for `CC(C)(O)Cn1cc(C(=O)N2CCc3[nH]cnc3[C@H]2c2nc3c(F)cccc3s2)c(Cl)n1` [Example 1994] was 1000 to 5000 nM.

What is called AC50 is the midpoint of the concentration-response curve, whichever way the signal moves.
